The source of these data is PMC10883716, “Conformational dynamics of adenylate kinase in crystals” (Structural Dynamics, 2024).

Test [1] has as its target T1, AKign (adenylate kinase from Methanotorrus igneus) (Methanotorris igneus, UniProt P43408).
T1 construct: gene adkA; full length, residues 1-192; synthetic gene in pET21a, C-terminal His6 tag kept (disordered, unbuilt); E. coli BL21(DE3); homotrimer
Briefly: X-ray crystallography, […] A. In kind it is binding. The settings on record: 4 mM Ap5A, 17% PEG 3350, 250 mM sodium malonate, 20 °C; one per protomer, spans AMP and ATP sites.

Test [2] addresses T1, AKign (adenylate kinase from Methanotorrus igneus). Briefly: X-ray crystallography, […] A. In kind it is binding. As to conditions: 4 mM AMP, 8% PEG 8000, 100 mM magnesium acetate, sodium acetate pH 4.5, 20 °C; two per protomer, in AMP and ATP sites.

T1 sequence (P43408 whole entry, the tested form may be a part): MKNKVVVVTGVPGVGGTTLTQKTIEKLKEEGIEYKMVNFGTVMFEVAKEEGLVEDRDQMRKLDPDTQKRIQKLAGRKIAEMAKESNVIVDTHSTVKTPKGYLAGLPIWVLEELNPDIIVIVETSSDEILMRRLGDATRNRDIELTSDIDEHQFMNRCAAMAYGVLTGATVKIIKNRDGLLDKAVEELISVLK

On to `Nc1ncnc2c1ncn2[C@@H]1O[C@H](COP(=O)(O)OP(=O)(O)OP(=O)(O)OP(=O)(O)OP(=O)(O)OC[C@H]2O[C@@H](n3cnc4c(N)ncnc43)[C@H](O)[C@@H]2O)[C@@H](O)[C@H]1O` [Ap5A, P^1,P^5-di(adenosine 5′)-pentaphosphate], for which the “X-ray crystallography, 2.25 A” value in test [1] is reported as “We also solved the AKign structure with the bound inhibitor, Ap5A”. For `Nc1ncnc2c1ncn2[C@@H]1O[C@H](COP(=O)(O)O)[C@@H](O)[C@H]1O` [AMP], the “X-ray crystallography, 2.40 A” value in test [2] is recorded as “AMP-bound AKign structure, which comprises two bound AMP molecules per AKign protomer”.
